From PMC6487453 (ACS Central Science, 2019)

Target: T1, LTA4H (Homo sapiens, UniProt P09960)
T1 sequence (P09960 2-611): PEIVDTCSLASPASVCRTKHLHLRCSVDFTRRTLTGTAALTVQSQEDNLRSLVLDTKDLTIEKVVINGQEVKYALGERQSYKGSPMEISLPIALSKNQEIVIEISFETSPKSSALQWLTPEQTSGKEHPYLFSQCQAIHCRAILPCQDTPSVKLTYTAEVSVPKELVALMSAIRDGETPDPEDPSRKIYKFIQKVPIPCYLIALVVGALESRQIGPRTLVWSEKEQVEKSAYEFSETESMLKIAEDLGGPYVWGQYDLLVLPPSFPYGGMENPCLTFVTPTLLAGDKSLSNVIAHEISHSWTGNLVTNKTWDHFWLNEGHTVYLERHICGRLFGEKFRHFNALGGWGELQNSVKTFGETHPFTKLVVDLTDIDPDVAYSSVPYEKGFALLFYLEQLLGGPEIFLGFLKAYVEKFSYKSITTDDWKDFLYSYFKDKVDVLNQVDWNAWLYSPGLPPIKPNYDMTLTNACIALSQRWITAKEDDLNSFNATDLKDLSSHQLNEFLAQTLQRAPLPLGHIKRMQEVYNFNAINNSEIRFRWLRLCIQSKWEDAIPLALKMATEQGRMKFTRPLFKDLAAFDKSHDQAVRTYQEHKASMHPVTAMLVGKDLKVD
Assay: colorimetric peptidase assay, 4-nitroaniline absorption at […] nm
Type: biochemical
Details: 50 mM HEPES pH 7.5, 100 mM KCl

Compound | colorimetric peptidase assay, 4-nitroaniline absorption at 410 nm (inhibitor, L-alanine 4-nitroanilide 1 mM, 460 nm light) | colorimetric peptidase assay, 4-nitroaniline absorption at 410 nm (1 mM substrate)
c1ccc(/N=N/c2ccc(OCCN3CCCC3)cc2)cc1 [trans-LTA4H-Photoswitch] | trans-LTA4H-Photoswitch was a more potent inhibitor of LTA4H peptidase than the cis-isomer | 
C[C@H](N)C(=O)Nc1ccc([N+](=O)[O-])cc1 [L-alanine 4-nitroanilide] |  | L-alanine 4-nitroanilide which is converted to the strongly absorbing 4-nitroaniline
